Experimental data reported in PMC6225322, “Development of Kinase Inhibitors via Metal-Catalyzed C–H Arylation of 8-Alkyl-thiazolo[5,4-f]-quinazolin-9-ones Designed by Fragment-Growing Studies” (Molecules : A Journal of Synthetic Chemistry and Natural …, 2018).

Assays:
[1] = target: CK1δ/ε; experiment: CK1δ/ε in vitro kinase assay (CKS peptide); assay type: biochemical, porcine; conditions: Table 4; ATP 15 μM, triplicate; <50% inhibition at 10 μM = IC50 >10 μM
Experimental: (§1) Products of series 2a–j, 3a–c, 4a–f, 9a–i, and 10 were evaluated in five different in vitro kinase assays: CDK5/p25, CK1δ/ε (casein kinase 1), GSK-3α/β, DYRK1A (dual-specificity, tyrosine phosphorylation regulated kinase), and CLK1 [37, 38, 39].
(§2) Controls were performed with appropriate dilutions of dimethyl sulfoxide (DMSO).
CK1δ/ε (porcine brain, native) was assayed as described for CDK1, but in buffer B, and using 25 μM CKS peptide ([…]pSAYSITA), a CK1-specific substrate.

[2] = target: DYRK1A (Homo sapiens, UniProt Q13627); experiment: DYRK1A in vitro kinase assay (Woodtide); assay type: biochemical
Experimental: as §1, §2

[3] = target: T1, CDK5/p25 (Homo sapiens, UniProt Q00535); experiment: CDK5/p25 in vitro kinase assay (33P-ATP, histone H1); assay type: biochemical
T1 construct: made in house
T1 sequence (Q00535 whole entry): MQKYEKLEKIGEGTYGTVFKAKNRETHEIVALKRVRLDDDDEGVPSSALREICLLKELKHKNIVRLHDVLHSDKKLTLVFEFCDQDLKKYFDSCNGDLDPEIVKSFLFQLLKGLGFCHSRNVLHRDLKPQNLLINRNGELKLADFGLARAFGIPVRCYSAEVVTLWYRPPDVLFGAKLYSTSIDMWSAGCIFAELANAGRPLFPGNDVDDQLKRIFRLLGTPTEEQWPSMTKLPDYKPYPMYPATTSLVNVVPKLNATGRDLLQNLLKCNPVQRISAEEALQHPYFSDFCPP
T1 sequence (Q15078 99-307 partner limits assumed): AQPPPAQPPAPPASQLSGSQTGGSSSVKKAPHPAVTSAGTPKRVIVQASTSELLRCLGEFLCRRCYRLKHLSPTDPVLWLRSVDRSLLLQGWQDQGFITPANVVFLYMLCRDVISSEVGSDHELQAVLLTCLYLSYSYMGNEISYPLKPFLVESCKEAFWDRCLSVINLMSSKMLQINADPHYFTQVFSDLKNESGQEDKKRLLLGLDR

[4] = target: GSK-3α/β; experiment: GSK-3α/β in vitro kinase assay (GS-1 peptide); assay type: biochemical, porcine; conditions: Table 4; ATP 15 μM, triplicate; <50% inhibition at 10 μM = IC50 >10 μM
Experimental: as §1, §2
GSK-3α/β (porcine brain, native) was assayed, in buffer A, with 0.5 mg BSA/mL + 1 mM DTT, using GS-1 ([…]pEDEEE) (pS stands for phosphorylated serine), a GSK-3 specific substrate, in the presence of 15 μmol/L [γ-^33P] ATP (3000 Ci/mmol; 10 mCi/mL) in a final volume of 30 μL. After 30 min incubation at 30 °C, the reaction was stopped by harvesting onto P81 phosphocellulose […] (Whatman, Dutscher SAS, Brumath, France) using a FilterMate harvester (PerkinElmer, Courtaboeuf, France), and were washed in 1% phosphoric acid. Scintillation fluid was added, and the radioactivity measured in a Packard counter.

[5] = target: CLK1 (Homo sapiens, UniProt P49759); experiment: CLK1 in vitro kinase assay (RS peptide); assay type: biochemical
CLK1, sequence (P49759 whole entry): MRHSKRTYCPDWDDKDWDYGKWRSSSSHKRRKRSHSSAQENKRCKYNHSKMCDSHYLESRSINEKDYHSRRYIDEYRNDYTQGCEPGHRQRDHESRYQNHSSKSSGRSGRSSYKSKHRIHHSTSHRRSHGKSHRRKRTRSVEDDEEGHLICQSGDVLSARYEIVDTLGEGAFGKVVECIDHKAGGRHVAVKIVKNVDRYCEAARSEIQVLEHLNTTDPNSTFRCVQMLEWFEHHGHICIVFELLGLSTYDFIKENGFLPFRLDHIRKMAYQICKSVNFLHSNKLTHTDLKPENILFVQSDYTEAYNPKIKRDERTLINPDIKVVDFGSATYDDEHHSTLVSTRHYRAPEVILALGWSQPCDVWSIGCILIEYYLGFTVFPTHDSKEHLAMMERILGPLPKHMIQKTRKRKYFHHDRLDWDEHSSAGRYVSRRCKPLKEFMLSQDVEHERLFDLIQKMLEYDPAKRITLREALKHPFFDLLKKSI

SMILES | IC50 [1] [µM] | IC50 [2] [µM] | IC50 [3] [µM] | IC50 [4] [µM] | IC50 [5] [µM] | DYRK inhibitory activity (in words) ([2]; SAR discussion)
O=c1c2c(ccc3nc(-c4cccnc4)sc32)ncn1Cc1ccccc1 [3a] | > 10 | 0.012 | > 10 | 3.7 | 2 | –
O=c1c2c(ccc3nc(-c4cnccn4)sc32)ncn1Cc1ccccc1 [3b] | > 10 | 0.133 | > 10 | 6 | 3.33 | –
Cn1cnc2ccc3nc(-c4cccnc4)sc3c2c1=O [4a, 8-Methyl-2-(pyridin-3-yl)thiazolo[5,4-f]quinazolin-9(8H)-one] | > 10 | > 10 | – | > 10 | > 10 | –
O=c1c2c(ccc3nc(-c4cccnc4)sc32)ncn1C1CC1 [4c, 8-Cyclopropyl-2-(pyridin-3-yl)thiazolo[5,4-f]quinazolin-9(8H)-one] | 6 | 0.011 | – | 0.068 | 0.018 | –
O=c1c2c(ccc3nc(-c4cccnc4)sc32)ncn1C1CCCC1 [4e, 8-Cyclopentyl-2-(pyridin-3-yl)thiazolo[5,4-f]quinazolin-9(8H)-one] | > 10 | > 10 | – | > 10 | > 10 | –
COc1ccc2c(c1)[nH]c1c(C)nccc12 [Harmine, reference compound] | 1.5 | – | – | > 10 | – | –

The remaining lines, values ahead:

IC50 [1] [µM] | IC50 [2] [µM] | IC50 [3] [µM] | IC50 [4] [µM] | IC50 [5] [µM] | DYRK inhibitory activity (in words) ([2]; SAR discussion) | SMILES
> 10 | > 10 | – | > 10 | > 10 | – | CC(C)n1cnc2ccc3nc(-c4cccnc4)sc3c2c1=O [4b, 8-Isopropyl-2-(pyridin-3-yl)thiazolo[5,4-f]quinazolin-9(8H)-one]
> 10 | > 10 | – | > 10 | > 10 | – | O=c1c2c(ccc3nc(-c4cccnc4)sc32)ncn1C1CCC1 [4d, 8-Cyclobutyl-2-(pyridin-3-yl)thiazolo[5,4-f]quinazolin-9(8H)-one]
> 10 | > 10 | – | > 10 | > 10 | – | O=c1c2c(ccc3nc(-c4cccnc4)sc32)ncn1C1CCCCC1 [4f, 8-Cyclohexyl-2-(pyridin-3-yl)thiazolo[5,4-f]quinazolin-9(8H)-one]
> 10 | > 10 | > 10 | ≥ 10 | > 10 | inactive | COc1ncccc1-c1nc2ccc3ncn(C4CC4)c(=O)c3c2s1 [compound 10]
